Among the data in patent US20170240556A1, “BIFLUORODIOXALANE-AMINO-BENZIMIDAZOLE KINASE INHIBITORS FOR THE TREATMENT OF CANCER, AUTOIMMUNEINFLAMMATION AND CNS DISORDERS” (4SC DISCOVERY GMBH, priority 2012, published 2017) are IC50 values, retold here.

For this assay, the target named is Casein kinase 1 delta (CSKN1D) (Homo sapiens, UniProt P48730). Briefly: Casein kinase assay, CK1 delta. As to conditions: recombinant CSKN1D 5 nM, ATP 10 μM. Type of assay: biochemical.
Casein kinase 1 delta (CSKN1D), sequence (P48730 whole entry): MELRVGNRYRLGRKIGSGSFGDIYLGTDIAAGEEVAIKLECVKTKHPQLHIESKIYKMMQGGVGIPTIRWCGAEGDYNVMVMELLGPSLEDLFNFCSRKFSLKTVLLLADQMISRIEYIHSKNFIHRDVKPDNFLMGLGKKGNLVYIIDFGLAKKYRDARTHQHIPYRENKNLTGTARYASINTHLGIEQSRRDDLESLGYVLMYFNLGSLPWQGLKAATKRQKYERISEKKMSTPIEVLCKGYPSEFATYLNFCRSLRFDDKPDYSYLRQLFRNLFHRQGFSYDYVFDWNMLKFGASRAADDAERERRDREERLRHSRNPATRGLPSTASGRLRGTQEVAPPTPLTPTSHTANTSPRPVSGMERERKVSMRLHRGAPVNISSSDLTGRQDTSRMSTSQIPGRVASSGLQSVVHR

As for `COc1cccc(C(=O)Nc2nc3cc4c(cc3[nH]2)OC(F)(F)O4)c1` [Compound 56, N-(2,2-difluoro-5H-[1,3]dioxolo[4′,5′:4,5]benzo[1,2-d]imidazol-6-yl)-3-methoxybenzamide], the IC50 was under 200 nM.
